Measured values as given in patent US20240270762A1, “PENICILLIN-BINDING PROTEIN INHIBITORS” (priority 2021, published 2024).
Values after ≈ are worked out from the molar mass of the structure shown. Where two headings read alike, the source gives them in different places.

Assays:
[1] = system: N. gonorrhoeae WHO Q; assay: Liquid broth MIC in Fastidious broth; details: Neisseria gonorrhoeae
[2] = system: N. gonorrhoeae ATCC 49226; assay: Liquid broth MIC in Fastidious broth; details: Neisseria gonorrhoeae
[3] = system: P. aeruginosa (ΔmexAB-oprM); assay: Broth microdilution MIC in iron-depleted CAMHB (IDM); format: cell-based; details: Pseudomonas aeruginosa; iron-depleted CAMHB (IDM); […]; read-out: Minimum inhibitory concentration, P. aeruginosa ΔmexAB-oprM
[4] = system: N. gonorrhoeae WHO X; assay: Liquid broth MIC in Fastidious broth; details: Neisseria gonorrhoeae
[5] = system: P. aeruginosa ATCC 35151; assay: microbe, parasite or virus in culture; format: cell-based; details: Pseudomonas aeruginosa, ATCC35151, read-out: Minimum inhibitory concentration, P. aeruginosa ATCC 35151
[6] = system: B. thailandensis ATCC 700388; assay: microbe, parasite or virus in culture; format: cell-based; details: Burkholderia thailandensis, ATCC700388, read-out: Minimum inhibitory concentration (MIC), B. thailandensis ATCC 700388
[7] = system: A. baumannii CDC-0083; assay: microbe, parasite or virus in culture; format: cell-based; details: Acinetobacter baumannii, CDC0083, read-out: MIC, A. baumannii CDC-0083
[8] = molecular target: T1, PBP1a from Acinetobacter baumannii (ATCC 19606) (Acinetobacter baumannii, UniProt A0ABX6CK30); assay: Bocillin-FL fluorescence polarization competition binding, A. baumannii PBP1a; details: fluorescence polarization competition binding assay using Bocillin-FL; read-out: A. baumannii PBP1a Potency
T1 sequence (A0ABX6CK30 1-851): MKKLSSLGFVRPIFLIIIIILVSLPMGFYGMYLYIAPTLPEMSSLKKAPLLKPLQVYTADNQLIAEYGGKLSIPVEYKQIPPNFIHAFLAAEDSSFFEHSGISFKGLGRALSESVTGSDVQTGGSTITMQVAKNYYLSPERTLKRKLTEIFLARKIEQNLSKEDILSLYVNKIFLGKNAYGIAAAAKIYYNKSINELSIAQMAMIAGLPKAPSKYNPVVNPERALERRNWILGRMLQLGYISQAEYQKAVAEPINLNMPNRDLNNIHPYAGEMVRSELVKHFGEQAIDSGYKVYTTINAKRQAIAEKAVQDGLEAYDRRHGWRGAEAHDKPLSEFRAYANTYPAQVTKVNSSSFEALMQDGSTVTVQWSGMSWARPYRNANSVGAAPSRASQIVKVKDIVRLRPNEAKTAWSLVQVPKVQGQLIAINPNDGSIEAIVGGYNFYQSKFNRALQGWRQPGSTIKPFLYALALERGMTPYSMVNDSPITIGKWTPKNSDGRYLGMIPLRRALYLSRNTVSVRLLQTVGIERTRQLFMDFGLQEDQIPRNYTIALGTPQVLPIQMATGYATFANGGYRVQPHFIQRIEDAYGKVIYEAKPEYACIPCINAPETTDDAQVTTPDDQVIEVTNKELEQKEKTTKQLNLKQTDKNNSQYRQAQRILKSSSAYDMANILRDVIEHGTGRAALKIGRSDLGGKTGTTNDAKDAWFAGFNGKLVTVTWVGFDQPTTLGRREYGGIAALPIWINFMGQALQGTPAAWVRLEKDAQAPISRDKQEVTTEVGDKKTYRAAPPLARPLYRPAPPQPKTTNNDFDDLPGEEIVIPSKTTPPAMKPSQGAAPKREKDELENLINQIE
In short: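 Purified PBP was preincubated with inhibitor (E. coli PBP3 1.5 μM, 30 min; P. aeruginosa PBP3 0.75 μM, A. baumannii PBP3 0.2 μM and PBP1a 1 μM, 15 min), then Bocillin-FL (0.1 μM; 0.05 μM for PBP1a) added and FP read up to 60 min. EC50 = 50% loss of bound probe.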

[9] = read-out: Minimum Inhibitory Concentration, WHO Q
[10] = ATCC49226, read-out: Minimum Inhibitory Concentration, ATCC 49226
[11] = read-out: Minimum Inhibitory Concentration, WHO X
[12] = read-out: Minimum Inhibitory Concentration (MIC), N. gonorrhoeae WHO Q
[13] = ATCC49226, read-out: Minimum Inhibitory Concentration (MIC), N. gonorrhoeae ATCC 49226
[14] = read-out: Minimum Inhibitory Concentration (MIC), N. gonorrhoeae WHO X

SMILES	MIC [1, 9]	MIC [2, 10]	MIC [3]	MIC [4, 11]	MIC [5]	MIC [6]	MIC [7]	IC50 [8]	MIC [1, 12]	MIC [2, 13]	MIC [4, 14]
O=C(NCCN1CCN(C(=O)NC(C(=O)N[C@H]2Cc3ccc(F)c(C(=O)O)c3OB2O)c2cc(F)c(O)c(O)c2Cl)C1=O)c1cccnc1 (stereo partly drawn) [Example 246, (3R)-3-(2-(2-chloro-5-fluoro-3,4-dihydroxyphenyl)-2-(3-(2-(nicotinamido)ethyl)-2-oxoimidazolidine-1-carboxamido)acetamido)-7-fluoro-2-hydroxy-3,4-dihydro-2H-benzo[e][1,2]oxaborinine-8-carboxylic acid]	> 64 µg/mL	16 to 32 µg/mL (≈ 22.8 to 45.5 µM)	< 1 µg/mL	> 64 µg/mL	< 1 µg/mL	2 to 4 µg/mL (≈ 2.85 to 5.69 µM)	< 1 µg/mL	> 250 µM			
O=C(NCCN1CCN(C(=O)NC(C(=O)N[C@H]2Cc3ccc(F)c(C(=O)O)c3OB2O)c2cc(F)c(O)c(O)c2Cl)C1=O)c1cccc(O)c1 (stereo partly drawn) [Example 244, (3R)-3-(2-(2-chloro-5-fluoro-3,4-dihydroxyphenyl)-2-(3-(2-(3-hydroxybenzamido)ethyl)-2-oxoimidazolidine-1-carboxamido)acetamido)-7-fluoro-2-hydroxy-3,4-dihydro-2H-benzo[e][1,2]oxaborinine-8-carboxylic acid]			< 1 µg/mL		< 1 µg/mL	> 128 µg/mL	< 1 µg/mL	> 250 µM	> 64 µg/mL	> 64 µg/mL	> 64 µg/mL
O=C(NCCN1CCN(C(=O)NC(C(=O)N[C@H]2Cc3ccc(F)c(C(=O)O)c3OB2O)c2cc(F)c(O)c(O)c2Cl)C(=O)C1=O)c1nccs1 (stereo partly drawn) [Example 218, (3R)-3-(2-(2-chloro-5-fluoro-3,4-dihydroxyphenyl)-2-(2,3-dioxo-4-(2-(thiazole-2-carboxamido)ethyl)piperazine-1-carboxamido)acetamido)-7-fluoro-2-hydroxy-3,4-dihydro-2H-benzo[e][1,2]oxaborinine-8-carboxylic acid]			< 1 µg/mL		< 1 µg/mL	2 to 4 µg/mL (≈ 2.71 to 5.43 µM)	8 to 16 µg/mL (≈ 10.9 to 21.7 µM)	> 250 µM	> 64 µg/mL	16 to 32 µg/mL (≈ 21.7 to 43.4 µM)	> 64 µg/mL
O=C(NCCS(=O)(=O)N1CCN(C(=O)NC(C(=O)N[C@H]2Cc3ccc(F)c(C(=O)O)c3OB2O)c2cc(F)c(O)c(O)c2Cl)C1=O)c1cccnc1 (stereo partly drawn) [Example 262, (3R)-3-(2-(2-chloro-5-fluoro-3,4-dihydroxyphenyl)-2-(3-((2-(nicotinamido)ethyl)sulfonyl)-2-oxoimidazolidine-1-carboxamido)acetamido)-7-fluoro-2-hydroxy-3,4-dihydro-2H-benzo[e][1,2]oxaborinine-8-carboxylic acid]	16 to 32 µg/mL (≈ 20.9 to 41.7 µM)	16 to 32 µg/mL (≈ 20.9 to 41.7 µM)	< 1 µg/mL	> 64 µg/mL	< 1 µg/mL	< 1 µg/mL	< 1 µg/mL	> 250 µM			
CN(CCN1CCN(C(=O)N[C@@H](C(=O)N[C@H]2Cc3ccc(F)c(C(=O)O)c3OB2O)c2cc(F)c(O)c(O)c2Cl)C(=O)C1=O)Cc1cccc(C(N)=O)c1 [Example 225, (R)-3-((R)-2-(4-(2-((3-carbamoylbenzyl)(methyl)amino)ethyl)-2,3-dioxopiperazine-1-carboxamido)-2-(2-chloro-5-fluoro-3,4-dihydroxyphenyl)acetamido)-7-fluoro-2-hydroxy-3,4-dihydro-2H-benzo[e][1,2]oxaborinine-8-carboxylic acid]			< 1 µg/mL		< 1 µg/mL	< 1 µg/mL	< 1 µg/mL	> 250 µM	> 64 µg/mL	16 to 32 µg/mL (≈ 20.7 to 41.4 µM)	> 64 µg/mL
O=C(CN1CCN(C(=O)NC(C(=O)N[C@H]2Cc3ccc(F)c(C(=O)O)c3OB2O)c2cc(F)c(O)c(O)c2Cl)C(=O)C1=O)NCc1cccc(O)c1 (stereo partly drawn) [Example 237, (3R)-3-(2-(2-chloro-5-fluoro-3,4-dihydroxyphenyl)-2-(4-(2-((3-hydroxybenzyl)amino)-2-oxoethyl)-2,3-dioxopiperazine-1-carboxamido)acetamido)-7-fluoro-2-hydroxy-3,4-dihydro-2H-benzo[e][1,2]oxaborinine-8-carboxylic acid]			< 1 µg/mL		< 1 µg/mL	8 to 16 µg/mL (≈ 10.7 to 21.5 µM)	> 128 µg/mL	> 250 µM	> 64 µg/mL	16 to 32 µg/mL (≈ 21.5 to 42.9 µM)	> 64 µg/mL
O=C(NCCN1CCN(C(=O)NC(C(=O)N[C@H]2Cc3ccc(F)c(C(=O)O)c3OB2O)c2cc(F)c(O)c(O)c2Cl)C1=O)Nc1cccnc1 (stereo partly drawn) [Example 251, (3R)-3-(2-(2-chloro-5-fluoro-3,4-dihydroxyphenyl)-2-(2-oxo-3-(2-(3-(pyridin-3-yl)ureido)ethyl)imidazolidine-1-carboxamido)acetamido)-7-fluoro-2-hydroxy-3,4-dihydro-2H-benzo[e][1,2]oxaborinine-8-carboxylic acid]	> 64 µg/mL	16 to 32 µg/mL (≈ 22.3 to 44.6 µM)	< 1 µg/mL	> 64 µg/mL	< 1 µg/mL	< 1 µg/mL	2 to 4 µg/mL (≈ 2.79 to 5.57 µM)	> 250 µM			
CN(CCN1CCN(C(=O)NC(C(=O)N[C@H]2Cc3ccc(F)c(C(=O)O)c3OB2O)c2cc(F)c(O)c(O)c2Cl)C(=O)C1=O)S(=O)(=O)c1ccc(C(N)=O)cc1 (stereo partly drawn) [Example 223, (3R)-3-(2-(4-(2-((4-carbamoyl-N-methylphenyl)sulfonamido)ethyl)-2,3-dioxopiperazine-1-carboxamido)-2-(2-chloro-5-fluoro-3,4-dihydroxyphenyl)acetamido)-7-fluoro-2-hydroxy-3,4-dihydro-2H-benzo[e][1,2]oxaborinine-8-carboxylic acid]			< 1 µg/mL		< 1 µg/mL	2 to 4 µg/mL (≈ 2.43 to 4.86 µM)	2 to 4 µg/mL (≈ 2.43 to 4.86 µM)	> 250 µM	> 64 µg/mL	16 to 32 µg/mL (≈ 19.4 to 38.9 µM)	> 64 µg/mL
O=C(CN1CCN(C(=O)NC(C(=O)N[C@H]2Cc3ccc(F)c(C(=O)O)c3OB2O)c2cc(F)c(O)c(O)c2Cl)C(=O)C1=O)Nc1cccc(O)c1 (stereo partly drawn) [Example 231, (3R)-3-(2-(2-chloro-5-fluoro-3,4-dihydroxyphenyl)-2-(4-(2-((3-hydroxyphenyl)amino)-2-oxoethyl)-2,3-dioxopiperazine-1-carboxamido)acetamido)-7-fluoro-2-hydroxy-3,4-dihydro-2H-benzo[e][1,2]oxaborinine-8-carboxylic acid]			< 1 µg/mL		< 1 µg/mL	2 to 4 µg/mL (≈ 2.73 to 5.47 µM)	> 128 µg/mL	> 250 µM	16 to 32 µg/mL (≈ 21.9 to 43.7 µM)	16 to 32 µg/mL (≈ 21.9 to 43.7 µM)	> 64 µg/mL
O=C(NCCCS(=O)(=O)N1CCN(C(=O)NC(C(=O)N[C@H]2Cc3ccc(F)c(C(=O)O)c3OB2O)c2cc(F)c(O)c(O)c2Cl)C1=O)c1ccccc1 (stereo partly drawn) [Example 268, (3R)-3-(2-(3-((3-benzamidopropyl)sulfonyl)-2-oxoimidazolidine-1-carboxamido)-2-(2-chloro-5-fluoro-3,4-dihydroxyphenyl)acetamido)-7-fluoro-2-hydroxy-3,4-dihydro-2H-benzo[e][1,2]oxaborinine-8-carboxylic acid]	16 to 32 µg/mL (≈ 20.5 to 41 µM)	16 to 32 µg/mL (≈ 20.5 to 41 µM)	< 1 µg/mL	> 64 µg/mL	< 1 µg/mL	> 128 µg/mL	2 to 4 µg/mL (≈ 2.56 to 5.13 µM)	> 250 µM			
